One test deals with EH1.2+EH1.1. The test can be described thus: Peptidome profiling by mass spectrometry, EH1.2+EH1.1 vs GFP. It counts as binding, Arabidopsis thaliana. The text has this:
Supplement 41467_2021_23314_MOESM6_ESM.xlsx, sheet "Supplementary Data 3" | column: EH1.2+EH1.1 vs GFP

Another test deals with EH1.2. The test can be described thus: Peptidome profiling by mass spectrometry, EH1.2. It counts as binding, Arabidopsis thaliana. The protocol: (§1) Arabidopsis (Col-0) was grown vertically on 1/2 MS media for 7 days on a nylon mesh, harvested and flash-frozen in liquid nitrogen. Frozen seedlings (3 g/experiment) were ground using mortar and pestle. Proteins were extracted and denatured in 50 mM NaHCO3, 8 M Urea and sonicated three times for 1 min. Protein extracts were rotated for 30 min at room temperature after which the extract was subsequently centrifuged twice at 20,000 × g for 20 min. DTT was added to the supernatant, was added to a final concentration of 5 mM and incubated at 55 °C for 30 min. Proteins were alkylated by the addition of 100 mM iodoacetamide and incubated for 15 min in the dark after which the mix was subsequently diluted with 50 mM NaHCO3 to a final concentration of 2 M urea. Trypsin was added in a ratio of 1:75, protein:trypsin (Sequencing Grade Modified Trypsin, V5117, Promega) and incubated overnight at 37 °C on a rotating wheel.
(§2) Trypsin was removed using Sep-Pak Vac 3cc columns (500 mg, WAT036815, Waters). The extract was acidified using 1% TFA for 15 min on ice and cleared by centrifugation at 1780 × g for 15 min at room temperature. The cleared extract was split into four and applied on an equilibrated Sep-Pak columns (Waters, WAT036815, Lot # 010437235B). The column was pre-wet using 5 ml of 100% MeCN followed by sequential washing with 1 ml, 3 ml, and 6 ml of 0.1% TFA. After application of the extract, the column was washed sequentially with 1 ml, 5 ml, and 6 ml of 0.1% TFA followed by a 2 ml wash with 0.1% TFA, 5% acetonitrile. The peptides were eluted using three times 2 ml 0.1% TFA, 40% acetonitrile. The eluate was lyophilized for two days to remove TFA. 200 µg EH domain or his-GFP were coupled, in triplicate, during one hour to 25 µl Ni Sepharose 6 Fast Flow beads (GE Healthcare, 17-5318-01). Unbound protein was removed by three washing steps of 1 ml each. The lyophilized peptides were solubilized in 20 mM HEPES, 150 mM NaCl buffer, 0.2 mM CaCl2, divided and added to the coupled beads. The peptidome was incubated with the proteins for 4 h after which the beads were washed three times with 1 ml of the binding buffer. Peptides were eluted by the addition of 80 µl 20 mM HEPES pH 8, 8 M Urea. The supernatant was removed from the beads and desalted with Monospin C18 columns (Agilent Technologies, A57003100) after which they were freeze dried.
(§3) Peptides were redissolved in 20 µl loading solvent A (0.1% TFA in water/acetonitrile (98:2, v/v)) of which 5 µl was injected for LC-MS/MS analysis on an Ultimate 3000 RSLC nano LC (Thermo Fisher Scientific, Bremen, Germany) in-line connected to a Q Exactive mass spectrometer (Thermo Fisher Scientific). The peptides were first loaded on a trapping column made in-house (100 μm internal diameter (I.D.) × 20 mm, 5 μm beads C18 Reprosil-HD, Dr. Maisch, Ammerbuch-Entringen, Germany) and after flushing from the trapping column the peptides were separated on a 50 cm µPAC™ column with C18-endcapped functionality (Pharmafluidics, Belgium) kept at a constant temperature of 35 °C. Peptides were eluted by a linear gradient from 98% solvent A′ (0.1% formic acid in water) to 55% solvent B′ (0.1% formic acid in water/acetonitrile, 20/80 (v/v)) in 30 min at a flow rate of 300 nl/min, followed by a 5 min wash reaching 99% solvent B’. The mass spectrometer was operated in data-dependent, positive ionization mode, automatically switching between MS and MS/MS acquisition for the 5 most abundant peaks in a given MS spectrum. The source voltage was 2.2 kV, and the capillary temperature was 250 °C. […]

A further test concerns EH1.1. The test can be described thus: Peptidome profiling by mass spectrometry, EH1.1. It is filed as binding, Arabidopsis thaliana. On the set-up: scale not given here. The protocol:
as §1, §2, §3

The test system of the next test is SCAMP5. The test can be described thus: ES9 treatment, SCAMP5 localization. It is filed as cell-based, Arabidopsis. As to conditions: 10 µM ES9, 5 min pretreatment then 30 min co-treatment with 2 µM FM4-64. Here is the method: For ES9 treatment plants were pretreated for 5 min with 10 µM ES9, a generous gift of the lab of Jenny Russinova (PSB, VIB/Ugent, BE), in 1/2 MS media followed by 30 min co-treatment of ES9 with 2 µM FM4-64.

Test [1] has as its target 15N-labeled EH1.1 of AtEH1/Pan1 (amino acids 1-107) for NMR titration (Arabidopsis thaliana). Put plainly: NMR titration; 1H,15N HSQC of 15N-labeled EH domain with successive addition of unlabeled peptide up to 1:4 excess; 20 mM MES 6.5, 150 mM NaCl, 2 mM CaCl2; chemical shift perturbations fitted to a binding isotherm; apparent.
The target in test [2] is 15N-labeled EH1.2 of AtEH1/Pan1 (amino acids 346-449) for NMR titration (Arabidopsis thaliana). The test is described as above.
Chain of 15N-labeled EH1.2 of AtEH1/Pan1 (amino acids 346-449) for NMR titration (Arabidopsis thaliana) (main, as listed by the source): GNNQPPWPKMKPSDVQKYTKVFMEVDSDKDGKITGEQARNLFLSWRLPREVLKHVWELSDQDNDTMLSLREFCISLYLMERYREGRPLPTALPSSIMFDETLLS
Test [3] deals with First EH domain of AtEH1/Pan1 (EH1.1), amino acids 1-107, His-tagged (Arabidopsis thaliana). Put plainly: BLI; Octet RED96; His-tagged EH domain on Ni-NTA biosensors, covalently coupled with EDC/NHS; peptide as analyte in increasing concentrations; 20 mM HEPES pH 7.4, 150 mM NaCl, 2 mM CaCl2; 25 °C; steady state, one-site total binding model.
Chain of First EH domain of AtEH1/Pan1 (EH1.1), amino acids 1-107, His-tagged (Arabidopsis thaliana) (main, as listed by the source): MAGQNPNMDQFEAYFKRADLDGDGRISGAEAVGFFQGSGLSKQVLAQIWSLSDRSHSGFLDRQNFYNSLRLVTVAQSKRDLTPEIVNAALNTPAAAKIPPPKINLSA

As for VFMEVDSDKDGKITGEQAR, the Difference in the test with EH1.2+EH1.1 is recorded as 7.377; in the test with EH1.2 (EH1.2 vs EH1.1+GFP), 15.5083; with EH1.2 (EH1.2 vs GFP) it was 15.257; in the test on EH1.1 (EH1.1 vs EH1.2) it was -15.7597; in the test on EH1.1 (EH1.1 vs EH1.2+GFP), -8.131; with EH1.1 (EH1.1 vs GFP), -0.5027.

For `O=[N+]([O-])c1ccc(NS(=O)(=O)c2ccc(Br)s2)cc1` [ES-9], the “effect on SCAMP5 localization (in words)” value with SCAMP5 is “caused SCAMP5 accumulation at the PM”.

In the case of YHASAIHVPGPEVAR, the Difference in the test on EH1.2+EH1.1 worked out at 7.661; in the test with EH1.2 (EH1.2 vs EH1.1+GFP) it was 3.084; in the test on EH1.2 (EH1.2 vs GFP), 7.163; with EH1.1 (EH1.1 vs EH1.2), 0.9954; in the test on EH1.1 (EH1.1 vs EH1.2+GFP), 4.577; in the test with EH1.1 (EH1.1 vs GFP), 8.159.

DLTPEIVNAALNTPAAAK: the Difference with EH1.2+EH1.1 was 7.898; with EH1.2 (EH1.2 vs EH1.1+GFP), -3.31; in the test with EH1.2 (EH1.2 vs GFP), 3.059; in the test on EH1.1 (EH1.1 vs EH1.2) it was 9.679; in the test on EH1.1 (EH1.1 vs EH1.2+GFP) it was 11.2082; in the test with EH1.1 (EH1.1 vs GFP) it was 12.7377.

B1: SCAMP5 double NPF peptide (peptide derived from the N-terminus of Secretory Carrier Membrane Protein 5) (peptide)
chain: DPNPFDEDEEIVNPFSK
modifications: not checked
For the molecule B1, the Kd in test [1] is 33 µM; in test [2], 190 µM; in test [3], 59 µM.

The values are drawn from PMC8144573, “Distinct EH domains of the endocytic TPLATE complex confer lipid and protein binding” (Nature Communications, 2021).
